For 21 molecules, T/C results are on record in PubChem BioAssay AID330 (DTP/NCI, 2004).

The assay has as its system P388 leukemia ip, CD2F1 mice, survival T/C. The assay is described as follows: NCI In Vivo Anticancer Drug Screen. Data for tumor model P388 Leukemia (intraperitoneal) in CD2F1 (CDF1) mice. The settings on record: endpoint: median survival time, higher = longer survival. A digest of the protocol:
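Mice carrying the transplanted tumor received test compound or vehicle. Survival was recorded in each group, and the value is the treated-group measurement divided by that of the vehicle-treated control group.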

Setting [1] is: dose: 50.0 mg/kg/injection, schedule: Q01DX005 (ip), vehicle: saline with Tween-80.
[2] abbreviates: dose: 60.0 mg/kg/injection, schedule: Q01DX005 (ip), vehicle: saline with Tween-80.
Where [3] appears, read: dose: 120.0 mg/kg/injection, schedule: Q01DX005 (ip), vehicle: saline with Tween-80.
[4] abbreviates: dose: 240.0 mg/kg/injection, schedule: Q01DX005 (ip), vehicle: saline with Tween-80.
The mark [5] stands for this setting: dose: 50.0 mg/kg/injection, schedule: Q01DX009 (ip), vehicle: saline with Tween-80.
Where [6] appears, read: dose: 100.0 mg/kg/injection, schedule: Q01DX009 (ip), vehicle: saline with Tween-80.
The mark [7] stands for this setting: dose: 200.0 mg/kg/injection, schedule: Q01DX009 (ip), vehicle: saline with Tween-80.
Setting [8] is: dose: 12.5 mg/kg/injection, schedule: Q01DX009 (ip), vehicle: saline with Tween-80.
Setting [9] is: dose: 100.0 mg/kg/injection, schedule: Q01DX005 (ip), vehicle: saline with Tween-80.
Setting [10] is: dose: 200.0 mg/kg/injection, schedule: Q01DX005 (ip), vehicle: saline with Tween-80.

The structures appear in SMILES notation. Values joined by “and” are separate entries in the source; they are usually repeats but may differ in a detail not shown here. Equal values may be shown once. Inconclusive results and toxic doses are left out.

For `CC([NH-])CC(C)[NH-].[I][Pt+2][I]` (configuration not stated), the T/C runs as follows: (dose: 12.5 mg/kg/injection, schedule: Q04DX002 (ip), vehicle: saline with Tween-80) 169 % of control and 150 % of control; (dose: 25.0 mg/kg/injection, schedule: Q04DX002 (ip), vehicle: saline with Tween-80) 163 % of control and 157 % of control.
For the molecule `C(=C\c1cc2cc(C3=NCCN3)ccc2[nH]1)/c1ccc(C2=NCCN2)cc1`, the T/C is, setting by setting: (dose: 6.25 mg/kg/injection, schedule: Q04DX003 (ip), vehicle: saline) 107 % of control and 108 % of control; (dose: 12.5 mg/kg/injection, schedule: Q04DX003 (ip), vehicle: saline) 117 % of control and 119 % of control.
Turning to `[Cl][Pt]([Cl])([Cl])[Cl].c1ccc2[nH]cnc2c1.c1ccc2[nH]cnc2c1`, the T/C runs as follows: (dose: 1.56 mg/kg/injection, schedule: Q01DX005 (ip), vehicle: saline with Tween-80) 87 % of control; (dose: 3.12 mg/kg/injection, schedule: Q01DX005 (ip), vehicle: saline with Tween-80) 97 % of control; (dose: 6.25 mg/kg/injection, schedule: Q01DX005 (ip), vehicle: saline with Tween-80) 94 % of control; under setting [1], 99 % of control and 96 % of control.
On to `O=C(Nc1ccc(C(=O)O)c(O)c1)Nc1ccccc1C(F)(F)F`, for which the T/C was 103 % of control under setting [2], 90 % of control under setting [3] and 103 % of control under setting [4].
Consider `CC12CC3(C)CC(C(Cl)C(=O)O)(C1)CC(C(Cl)C(=O)O)(C2)C3` (configuration not stated), for which the T/C reads like this: under setting [5], 103 % of control; under setting [6], 100 % of control; under setting [7], 107 % of control.
Consider `O=C1CSC(=O)N1c1cccc(C(F)(F)F)c1`, for which the T/C was 104 % of control under setting [5] and 97 % of control under setting [6].
Regarding `C[C@@H]1C[C@@H]2OC(=O)[C@]3(C)[C@H]2[C@@H](OC3(C)O)[C@]2(C)C(=O)C=C[C@@H]12` (some centres not stated), the T/C reads like this: (dose: 4.25 mg/kg/injection, schedule: Q01DX009 (ip), vehicle: Klucel (hydroxypropylcellulose) (HPC)) 104 % of control; (dose: 8.5 mg/kg/injection, schedule: Q01DX009 (ip), vehicle: Klucel (hydroxypropylcellulose) (HPC)) 102 % of control and 109 % of control; (dose: 17.0 mg/kg/injection, schedule: Q01DX009 (ip), vehicle: Klucel (hydroxypropylcellulose) (HPC)) 119 % of control and 120 % of control.
For `CCOC(=O)Cc1ccc(-c2csc(Nc3ccccc3)n2)cc1`, the T/C (dose: 50.0 mg/kg/injection, schedule: Q01DX009 (ip), vehicle: Klucel (hydroxypropylcellulose) (HPC)) was 106 % of control; the T/C (dose: 100.0 mg/kg/injection, schedule: Q01DX009 (ip), vehicle: Klucel (hydroxypropylcellulose) (HPC)) is 98 % of control; the T/C (dose: 200.0 mg/kg/injection, schedule: Q01DX009 (ip), vehicle: Klucel (hydroxypropylcellulose) (HPC)) is 98 % of control.
In the case of `CCCCCCCCCCC(O)Cn1ccnc1` (configuration not stated), the T/C reads like this: under setting [8], 96 % of control; (dose: 25.0 mg/kg/injection, schedule: Q01DX009 (ip), vehicle: saline with Tween-80) 100 % of control; under setting [5], 95 % of control.
As for `COC(c1cc(C(O)(C(F)(F)F)C(F)(F)F)cc(C(OC)(C(F)(F)F)C(F)(F)F)c1)(C(F)(F)F)C(F)(F)F`, the T/C is 100 % of control (dose: 100.0 mg/kg/injection, schedule: Q04DX003 (ip), vehicle: Klucel (hydroxypropylcellulose) (HPC)); 100 % of control (dose: 200.0 mg/kg/injection, schedule: Q04DX003 (ip), vehicle: Klucel (hydroxypropylcellulose) (HPC)); 92 % of control (dose: 400.0 mg/kg/injection, schedule: Q04DX003 (ip), vehicle: Klucel (hydroxypropylcellulose) (HPC)).
As for `N#Cc1ccc[n+](Cc2ccccc2)c1`, the T/C by setting is: under setting [1], 100 % of control; under setting [9], 103 % of control; under setting [10], 100 % of control.
In the case of `COc1ccc([N+](=O)[O-])c(OC(C)=O)c1OC`, the T/C by setting is: (dose: 12.5 mg/kg/injection, schedule: Q01DX009 (ip), vehicle: other) 104 % of control; (dose: 50.0 mg/kg/injection, schedule: Q01DX009 (ip), vehicle: other) 93 % of control; (dose: 100.0 mg/kg/injection, schedule: Q01DX009 (ip), vehicle: other) 89 % of control; (dose: 200.0 mg/kg/injection, schedule: Q01DX009 (ip), vehicle: other) 89 % of control.
In the case of `O=S(O)OC1(O)CCCCC1`, the T/C was 110 % of control (dose: 100.0 mg/kg/injection, schedule: Q04DX002 (ip), vehicle: saline); 95 % of control (dose: 200.0 mg/kg/injection, schedule: Q04DX002 (ip), vehicle: saline); 100 % of control (dose: 400.0 mg/kg/injection, schedule: Q04DX002 (ip), vehicle: saline).
Consider `O=C(O)C(=O)O.[U]`, for which the T/C under setting [8] is 100 % of control.
For `N/N=C1\c2ccccc2-c2cccc(N)c21`, the T/C reads like this: under setting [2], 102 % of control; under setting [3], 112 % of control; under setting [4], 99 % of control.
On to `CCC1=CC2CC(c3cc4c(cc3OC)N(C)C3C(O)(C(=O)NC)C(OC(C)=O)C5(CC)C=CCN6CCC43C65)c3[nH]c4ccccc4c3CCN(C1)C2` (configuration not stated), for which the T/C was 101 % of control (dose: 0.06 mg/kg/injection, schedule: Q01DX009 (ip), vehicle: water); 101 % of control (dose: 0.13 mg/kg/injection, schedule: Q01DX009 (ip), vehicle: water); 95 % of control (dose: 0.25 mg/kg/injection, schedule: Q01DX009 (ip), vehicle: water); 89 % of control (dose: 0.5 mg/kg/injection, schedule: Q01DX009 (ip), vehicle: water); 94 % of control (dose: 1.0 mg/kg/injection, schedule: Q01DX009 (ip), vehicle: water); 103 % of control (dose: 2.0 mg/kg/injection, schedule: Q01DX001 (ip), vehicle: water). Moreover, the T/C reads like this: (dose: 2.0 mg/kg/injection, schedule: Q01DX009 (ip), vehicle: water) 97 % of control; (dose: 4.0 mg/kg/injection, schedule: Q01DX001 (ip), vehicle: water) 99 % of control; (dose: 8.0 mg/kg/injection, schedule: Q01DX001 (ip), vehicle: water) 98 % of control; (dose: 16.0 mg/kg/injection, schedule: Q01DX001 (ip), vehicle: water) 94 % of control; (dose: 25.0 mg/kg/injection, schedule: Q01DX001 (ip), vehicle: other) 91 % of control; (dose: 32.0 mg/kg/injection, schedule: Q01DX001 (ip), vehicle: water) 100 % of control. In addition, the T/C by setting is: (dose: 100.0 mg/kg/injection, schedule: Q01DX001 (ip), vehicle: other) 91 % of control; (dose: 200.0 mg/kg/injection, schedule: Q01DX001 (ip), vehicle: other) 94 % of control; (dose: 400.0 mg/kg/injection, schedule: Q01DX001 (ip), vehicle: other) 94 % of control.
Consider `CSC(=S)n1nc(-c2ccccc2)c(N=Nc2cccc(Cl)c2Cl)c1-c1ccccc1`, for which the T/C runs as follows: (dose: 100.0 mg/kg/injection, schedule: Q01DX001 (ip), vehicle: saline with Tween-80) 87 % of control; (dose: 200.0 mg/kg/injection, schedule: Q01DX001 (ip), vehicle: saline with Tween-80) 87 % of control; (dose: 400.0 mg/kg/injection, schedule: Q01DX001 (ip), vehicle: saline with Tween-80) 97 % of control.
With `COc1ccc(S(=O)(=O)N/N=C\c2cccc([N+](=O)[O-])c2O)cc1OC`, the T/C under setting [1] was 102 % of control, the T/C under setting [9] is 99 % of control and the T/C under setting [10] was 101 % of control.
Regarding `COc1cccc(/C=N/NC(=O)C2CCN(C(=S)NC3CC4C=CC3C4)CC2)c1O` (configuration not stated), the T/C reads like this: under setting [8], 101 % of control; under setting [5], 99 % of control and 97 % of control; under setting [6], 103 % of control; under setting [7], 103 % of control.
In the case of `C/C(Cl)=C/CN(C/C=C(/C)Cl)CCO`, the T/C is 101 % of control under setting [1] and 102 % of control under setting [9].
Turning to `CC(=O)c1c(O)c2ccccc2c2nc3ccccc3nc12`, the T/C runs as follows: (dose: 50.0 mg/kg/injection, schedule: Q01DX009 (ip), vehicle: saline) 96 % of control; (dose: 100.0 mg/kg/injection, schedule: Q01DX009 (ip), vehicle: saline) 91 % of control; (dose: 200.0 mg/kg/injection, schedule: Q01DX009 (ip), vehicle: saline) 91 % of control.
